From PubChem BioAssay (NCI)
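The compound was tested at five concentrations on cells cultured in 96-well plates, with a 48-hour exposure period. GI50 marks 50% less growth. Definition used: TGI = concentration required for complete inhibition of growth.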

Key:
Assay in all cases: growth of human tumour cells (NCI), 48 h
[1] = test system: RPMI-8226 leukemia
[2] = test system: SNB-19 CNS
[3] = test system: A498 renal
[4] = test system: ACHN renal
[5] = test system: TK-10 renal
[6] = test system: MCF7 breast
[7] = test system: UACC-257 melanoma
[8] = test system: SF-268 CNS
[9] = test system: NCI-H460 lung
[10] = test system: K-562 leukemia

Compound | GI50 [1] [µM] | TGI [1] [µM] | GI50 [2] [µM] | TGI [2] [µM] | GI50 [3] [µM] | TGI [3] [µM] | GI50 [4] [µM] | TGI [4] [µM] | GI50 [5] [µM] | TGI [5] [µM] | GI50 [6] [µM] | TGI [6] [µM] | GI50 [7] [µM] | TGI [7] [µM] | GI50 [8] [µM] | TGI [8] [µM] | GI50 [9] [µM] | TGI [9] [µM] | GI50 [10] [µM] | TGI [10] [µM]
CNCCCn1c2c(c3ccc([N+](=O)[O-])cc3c1=O)C(=O)c1cc(OC)cnc1-2 | 0.0764 | 0.527 | 0.0394 | 2.07 | 0.0338 | 0.276 | 0.0361 | 0.149 | 0.317 | 1.5 | 0.0132 | 1.06 | 0.175 | 0.953 | 0.0685 | 2.17 | 0.0194 | 0.185 | 0.0435 | 1.53
Cc1ccc(-c2nc(C#N)c(S(=O)(=O)n3nc(C)cc3N)o2)cc1 | 3.07 | 10.1 | 14.1 | 28.4 | 16.3 | 32.9 | 1.91 | 3.38 | 1.97 | 3.6 | 3.07 | 15.5 | 16.5 | 30.1 | 16.4 | 36.2 | 19.5 | 41.5 | 1.25 | 4.3
O=C(O)C1OC1(c1cccc(Cl)c1)c1ccccc1Cl (centres undefined) | – | 94.8 | – | > 100 | – | > 100 | – | > 100 | – | > 100 | – | > 100 | – | 70.6 | – | 47.8 | – | > 100 | – | 87.6
O=c1ccn(C2CC(O)C(CO)O2)c(=O)[nH]1 (centres undefined) | 1190 | > 5000 | > 5000 | > 5000 | > 5000 | > 5000 | > 5000 | > 5000 | > 5000 | > 5000 | 3000 | > 5000 | > 5000 | > 5000 | > 5000 | > 5000 | > 5000 | > 5000 | > 5000 | > 5000
COc1cc2ccccc2oc1=O | – | > 100 | – | > 100 | – | > 100 | – | > 100 | – | > 100 | – | > 100 | – | > 100 | – | > 100 | – | > 100 | – | > 100
CC1OC(n2c3ccccc3c3c4c(c5c6ccccc6[nH]c5c32)C(=O)N(CCN[C@@H]2CCC[C@H]2N)C4=O)CC(O)C1O (some centres undefined) | 1.14 | 2.89 | 1.39 | 6.58 | 1.93 | 8.24 | 2.97 | 10.5 | 2.98 | 11 | 0.768 | 2.05 | 3.73 | 10.5 | 1.48 | 8.06 | 0.744 | 1.57 | 0.85 | 2.76
COc1ccc(C2CC(C)(O)Oc3cc4c(cc32)OCO4)cc1 (centres undefined) | – | > 100 | – | > 100 | – | > 91.6 | – | > 100 | – | > 100 | – | > 100 | – | > 100 | – | > 100 | – | > 100 | – | 98.7
CC1(N)CCN(c2cccnc2NC(=O)c2nc(-c3ncccc3C(F)(F)F)cnc2N)CC1 | 24.4 | > 100 | 50 | > 100 | 34.7 | > 100 | 19.2 | > 100 | 4.35 | > 100 | 26.2 | > 100 | 18.1 | 34.1 | 31.5 | > 100 | 41.1 | > 100 | 22.3 | > 100
CC(=O)OC[C@]12CC[C@@H](C(=O)CBr)[C@@H]1[C@H]1CC[C@@H]3[C@@]4(C)CCCNC(C)(C)[C@@H]4CC[C@@]3(C)[C@]1(C)CC2 | 2.36 | 6.69 | 11.5 | 25.2 | 15 | 28.5 | 2.02 | 4.28 | 2.93 | 11.6 | 2.27 | 6.21 | 9.2 | 23.1 | 5.98 | 23.9 | 7.66 | 21.8 | 2.61 | 8.33
COc1cc2c3c(n(CCCCN)c(=O)c2cc1OC)-c1cc2c(cc1C3=O)OCO2 | 0.351 | 1.31 | 0.464 | 6.75 | 7.81 | 17 | 0.38 | 1.35 | 3.84 | 8.48 | 0.0191 | 1.13 | 3.35 | 25 | 0.801 | 5.55 | 0.114 | 2.07 | 0.431 | 2.17
COC(=O)[C@@]12OC[C@]34[C@H]([C@@H](O)[C@@H]1O)[C@@]1(C)[C@H](O)C(=O)C=C(C)[C@@H]1C[C@H]3OC(=O)C(OC(C)=O)[C@@H]24 (some centres undefined) | 0.017 | 0.0396 | 0.0232 | 0.299 | 0.0146 | 0.0413 | 0.0502 | 0.28 | 0.0374 | 0.197 | 0.0214 | 0.0701 | 0.0668 | 0.428 | 0.0428 | 0.231 | 0.0183 | 0.0524 | 0.0314 | –
O=C(Nc1cccc(-n2cc(-c3ccncc3)c(-c3ccc(Cl)c(O)c3)n2)c1)c1ccc(N2CCOCC2)c(C(F)(F)F)c1 | 1.4 | 12.5 | 4.11 | > 50 | 15.5 | > 50 | 1.92 | > 50 | 21.3 | > 50 | 2.81 | > 50 | 6.3 | 36.8 | 5.58 | > 50 | 1.72 | 14.8 | 1.88 | > 50
C=C1/C(=C\C=C2/CCC[C@]3(C)[C@@H]([C@H](C)CCCC(C)(C)O)CC[C@@H]23)C[C@@H](OC(=O)CBr)C[C@@H]1O | 0.293 | 2.48 | 11.2 | 24.9 | 0.469 | 3.17 | 0.709 | 5.13 | 6.88 | 21.6 | 1.38 | 5.74 | 9.84 | 26.8 | 2.26 | 6.1 | 12 | 28 | 2.75 | > 33.9
